In data set [1] the test system is Plasmodium berghei. The data set can be described thus: Effect on multidrug resistance protein-mediated Rhodamine 123 drug uptake in blood stage of Plasmodium berghei NK65 mitochondria infected ICR mice (Mus musculus) RBCs at 10 uM after 20 min by fluorescence microscopy.
Data set [2] concerns Plasmodium berghei. Description: Drug uptake in ring stage of Plasmodium berghei NK65 infected in ICR mice (Mus musculus) RBCs at 10 nM after 20 min using Rhodamine 123 by fluorescence microscopy. Type of data set: ADME, organism-based. Conditions: in vivo, 0.01 µM.
Data set [3] concerns Plasmodium berghei. The data set can be described thus: Drug uptake in early trophozoite stage of Plasmodium berghei NK65 infected in ICR mice (Mus musculus) RBCs at 10 nM after 20 min using Rhodamine 123 by fluorescence microscopy. Conditions: in vivo, 0.01 µM. It counts as ADME, organism-based.
The subject of data set [4] is Plasmodium berghei. The data set can be described thus: Drug uptake in late trophozoite stage of Plasmodium berghei NK65 infected in ICR mice (Mus musculus) RBCs at 10 nM after 20 min using Rhodamine 123 by fluorescence microscopy. Type of data set: ADME, organism-based. To be noted: in vivo, 0.01 µM.
In data set [5] the test system is Plasmodium berghei. Description: Drug uptake in schizont stage of Plasmodium berghei NK65 infected in ICR mice (Mus musculus) RBCs at 10 nM after 20 min using Rhodamine 123 by fluorescence microscopy. Type of data set: ADME, organism-based. Conditions: in vivo, 0.01 µM.
The test system of data set [6] is Plasmodium berghei. Description: Antimalarial activity against Plasmodium berghei NK65 infected in mice (Mus musculus) assessed as reduction of parasitaemia at 40 mg/kg, subcutaneous daily for 3 days. It counts as functional. More on the design: scale not given: the % may be the effect or the level left.
Data set [7] deals with Plasmodium berghei. Description: Antimalarial activity against Plasmodium berghei NK65 infected in mice (Mus musculus) assessed as increase of mice (Mus musculus) survival days at 40 mg/kg, subcutaneous daily for 3 days measured up to 18 months. Type of data set: functional, organism-based. Set-up: dose 40 mg/kg.
The next data set has as its system Mus musculus. The data set can be described thus: Drug uptake in Plasmodium berghei NK65 infected ICR mice (Mus musculus) RBCs at 40 mg/kg, subcutaneously qd for 3 days after 23 hrs. It counts as ADME, organism-based. More on the design: dose 40 mg/kg, route subcutaneous. To be noted: in vivo, sc.
The test system of data set [8] is Plasmodium berghei. Description: Antimalarial activity against Plasmodium berghei NK65 infected in mice (Mus musculus) assessed as reduction of parasitaemia at 40 mg/kg, subcutaneous after 23 hrs (reference value: 8.2 to 25.3 %). It counts as functional. More on the design: scale not given: the % may be the effect or the level left.
In data set [9] the test system is Plasmodium berghei. Description: Effect on multidrug resistance protein-mediated Rhodamine 123 drug uptake in blood stage of Plasmodium berghei NK65 mitochondria infected ICR mice (Mus musculus) RBCs at 10 nM after 20 min by fluorescence microscopy.
Data set [10] in a line: Drug uptake in blood stage of Plasmodium berghei NK65 infected ICR mice (Mus musculus) RBCs at 0.25 uM after 20 min using Rhodamine 123 by fluorescence microscopy. It counts as ADME, tissue-based. To be noted: erythrocyte.
The nature of data set [11]: Drug uptake in blood stage of Plasmodium berghei NK65 mitochondria infected ICR mice (Mus musculus) RBCs at 0.25 uM after 20 min using Rhodamine 123 by fluorescence microscopy. It counts as ADME.
Data set [12] is described as follows: Drug uptake in blood stage of Plasmodium berghei NK65 nucleus infected ICR mice (Mus musculus) RBCs at 0.25 uM after 20 min using Rhodamine 123 by fluorescence microscopy. Type of data set: ADME, tissue-based.

Activity calls are given as the source filed them. The calls are words filed in the database; no cut-off is given here.

Regarding `N#CC(C#N)=NNc1cccc(Cl)c1`, the Drug uptake result with Plasmodium berghei [1] is “inactive”.

On to `CCCCCC[C@H]1C(=O)O[C@H](C)[C@H](NC(=O)c2cccc(NC=O)c2O)C(=O)O[C@@H](C)[C@@H]1OC(=O)CC(C)C`, for which the Drug uptake result with Plasmodium berghei [1] is “inactive”.

On to `CCn1c(=O)/c(=C/C=c2\nc3c(o2)=CC=CN3C)s/c1=C\c1sc2ccccc2[n+]1C.[Cl-]`, for which the Drug uptake result (in the data set on Plasmodium berghei [2]; in the data set with Plasmodium berghei [3]; in the data set on Plasmodium berghei [4]; with Plasmodium berghei [5]; in the data set with Mus musculus; in data set [10]) was “Active” throughout. Moreover, the Drug uptake result in data set [11] and in data set [12] was “Active” in each case. In addition, the values for the Activity in the data set with Plasmodium berghei [6] and in the data set on Plasmodium berghei [8] were 100% and 10.8%, respectively. In the data set with Plasmodium berghei [7], the result was Active. Besides, in the data set on Plasmodium berghei [9], the Drug uptake result is “Active”.

Source of the values: ChEMBL document CHEMBL1287693, “Selective accumulation of a novel antimalarial rhodacyanine derivative, SSJ-127, in an organelle of Plasmodium berghei” (Bioorg Med Chem, 2010).
